According to BindingDB's records for doi:10.1021/jm401056w (Takeda Pharmaceutical, 2013):

Test: Inhibition of human KISS1R expressed in CHO cells assessed as inhibition of KISS1R-mediated cell growth after 3 days by cell counting kit-8 assay

IC50 | SMILES
0.087 µM | CNC(N)=NCCC[C@H](NC(=O)[C@H](CC(C)C)NC(=O)CNC(=O)[C@H](Cc1ccccc1)NC(=O)[C@H](CO)NC(=O)[C@H](CC(N)=O)NC(=O)[C@H](Cc1c[nH]c2ccccc12)NC(=O)[C@H](CC(N)=O)NC(=O)[C@H](N)Cc1ccc(O)cc1)C(=O)N[C@@H](Cc1ccccc1)C(N)=O
8.51 µM | CC(C)C[C@H](NC(=O)CNC(=O)[C@H](Cc1ccccc1)NC(=O)[C@H](CO)NC(=O)[C@H](CC(N)=O)NC(=O)[C@H](Cc1c[nH]c2ccccc12)NC(=O)[C@H](CC(N)=O)NC(=O)[C@@H](N)Cc1ccc(O)cc1)C(=O)N[C@@H](CCCN=C(N)N)C(=O)N[C@@H](Cc1ccccc1)C(N)=O [(2S)-2-[(2S)-2-[(2S)-2-[(2S)-2-amino-3-(4-hydroxyphenyl)propanamido]butanediamido]-3-(1H-indol-3-yl)propanamido]-N-[(1S)-1-{[(1S)-1-[({[(1S)-1-{[(1S)-4-carbamimidamido-1-{[(1S)-1-carbamoyl-2-phenylethyl]carbamoyl}butyl]carbamoyl}-3-methylbutyl]carbamoyl}methyl)carbamoyl]-2-phenylethyl]carbamoyl}-2-hydroxyethyl]butanediamide]
